US9079913B2, “Spiro-oxindole MDM2 antagonists” (The Regents of the University of Michigan, priority 2009, dated 2015)
Where two headings read alike, the source gives them in different places.

Legend:
[1] = biological target: recombinant human His-tagged MDM2 protein (residues 1-118) (Homo sapiens (Human), UniProt Q00987); assay: Fluorescence-polarization MDM2 binding assay;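 also: fluorescence polarization read after three hours of incubation in potassium phosphate buffer containing bovine gamma globulin and Triton X-100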
[2] = tested on: Isogenic HCT-116 colon cancer cell lines; assay: cells; assay type: cell-based;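 also: cells grown in 96-well plates in McCoy's 5A medium with 10% FBS, exposed to compound for 4 days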
Experimental: Cells were seeded in 96-well flat bottom cell culture plates at a density of 2−3×10^3 cells/well with compounds and incubated for 4 days.

[3] = tested on: cancer cell lines with wild-type p53 / mutated or deleted p53 (ATCC); assay: Cell growth assay (WST-8), other cancer cell lines; assay type: cell-based
[4] = Table 19A, FP binding assay, read-out: MDM2 IC50
[5] = Table 19D, read-out: MDM2 Binding Affinities IC50
[6] = Homo sapiens, HCT-116, read-out: HCT116p53KO IC50, Table 19D, HCT116 p53KO
[7] = Homo sapiens, HCT-116, read-out: HCT116p53WT IC50, Table 19D, HCT116 p53WT
[8] = Homo sapiens, LNCaP, Table 19D, LNCaP cells, read-out: LNCaP IC50
[9] = Homo sapiens, PC-3, Table 19D, PC3 cells, read-out: PC3 IC50
[10] = Homo sapiens, Table 19D, SJSA-1 cells, unit inferred, read-out: SJSA-1
[11] = Table 19B, read-out: Binding affinities to MDM2 protein as determined by FP based assay IC50
[12] = Homo sapiens, HCT-116, read-out: Inhibition of cell growth IC50, HCT116 p53 KO, Table 19B, HCT116 p53 KO
[13] = Homo sapiens, HCT-116, read-out: Inhibition of cell growth IC50, HCT116 p53 WT, Table 19B, HCT116 p53 WT
[14] = Homo sapiens, LNCaP, Table 19B, LNCaP cells, read-out: Inhibition of cell growth IC50, LNCaP
[15] = Homo sapiens, PC-3, Table 19B, PC3 cells, read-out: Inhibition of cell growth IC50, PC3
[16] = read-out: Inhibition of cell growth IC50, HCT116 p53 KO, Table 19B, HCT116 p53 KO
[17] = read-out: Inhibition of cell growth IC50, HCT116 p53 WT, Table 19B, HCT116 p53 WT
[18] = Table 19B, LNCaP cells, read-out: Inhibition of cell growth IC50, LNCaP
[19] = Table 19B, PC3 cells, read-out: Inhibition of cell growth IC50, PC3

recombinant human His-tagged MDM2 protein (residues 1-118), sequence (Q00987 1-118): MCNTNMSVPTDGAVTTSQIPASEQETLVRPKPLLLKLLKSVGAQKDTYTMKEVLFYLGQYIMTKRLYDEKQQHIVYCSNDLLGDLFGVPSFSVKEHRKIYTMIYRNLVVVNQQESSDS

Structure (SMILES)	IC50 [1, 11] [µM]	IC50 [2, 12] [µM]	IC50 [2, 13] [µM]	IC50 [3, 14] [µM]	IC50 [3, 15] [µM]	other results
CC(C)(C)C[C@H]1N[C@@H](C(=O)NCC2CC(O)C(O)C2)[C@H](c2cccc(Cl)c2)[C@@]12C(=O)Nc1cc(Cl)c(F)cc12 (stereo partly drawn) [MI-519-37]						IC50 [1, 4]: < 1 µM; IC50 ([2]; read-out: HCT-116 (p53-/-) IC50, Table 19A, HCT-116 p53-/-, cell growth): 14.9 ± 2 µM; IC50 ([2]; read-out: HCT-116 (p53 wild-type) IC50, Table 19A, HCT-116 p53 wild-type, cell growth): 1 ± 0.5 µM; IC50 ([3]; Table 19A, LNCAP cells, p53 wild-type, cell growth, read-out: LNCAP (p53 wild-type) IC50): 0.6 ± 0.1 µM; IC50 ([3]; Table 19A, PC-3 cells, deleted p53, cell growth, read-out: PC-3 (deleted p53) IC50): 14 ± 2.2 µM
CN1CCC(NC(=O)[C@@H]2N[C@H](CC(C)(C)C)[C@]3(C(=O)Nc4cc(Cl)ccc43)[C@H]2c2cccc(Cl)c2F)CC1 [MI-519-52]						IC50 [1, 5]: < 1 µM; IC50 [2, 6]: > 5 µM; IC50 [2, 7]: < 1 µM; IC50 [3, 8]: < 1 µM; IC50 [3, 9]: > 3 µM; IC50 [3, 10]: < 1 µM
CN1CCC(CNC(=O)[C@@H]2N[C@H](CC(C)(C)C)[C@]3(C(=O)Nc4cc(Cl)ccc43)[C@H]2c2cccc(Cl)c2F)CC1 [MI-519-53-1]						IC50 [1, 5]: < 1 µM; IC50 [2, 6]: > 3 µM; IC50 [2, 7]: < 1 µM; IC50 [3, 8]: < 1 µM; IC50 [3, 9]: > 3 µM; IC50 [3, 10]: < 1 µM
CC(C)(C)C[C@H]1N[C@@H](C(=O)N[C@H]2CC[C@@H](N)C2)[C@H](c2cccc(Cl)c2F)[C@@]12C(=O)Nc1cc(Cl)ccc12 [MI-519-55]						IC50 [1, 5]: < 1 µM; IC50 [2, 6]: > 5 µM; IC50 [2, 7]: < 2 µM; IC50 [3, 8]: < 2 µM; IC50 [3, 9]: > 3 µM; IC50 [3, 10]: < 3 µM
CC(C)(C)C[C@H]1N[C@@H](C(=O)NC2CCN(CCF)CC2)[C@H](c2cccc(Cl)c2F)[C@@]12C(=O)Nc1cc(Cl)ccc12 [MI-519-56]						IC50 [1, 4]: < 1 µM; IC50 ([2]; Homo sapiens, HCT-116, read-out: HCT-116 (p53 wild-type) IC50, Table 19A, HCT-116 p53 wild-type, cell growth): < 1 µM; IC50 ([3]; Homo sapiens, LNCaP, Table 19A, LNCAP cells, p53 wild-type, cell growth, read-out: LNCAP (p53 wild-type) IC50): > 10 µM; IC50 ([3]; Homo sapiens, SJSA-1, Table 19A, SJSA-1 cells, p53 wild-type, cell growth, read-out: SJSA-1 (p53 wild-type) IC50): < 1 µM
CC(C)(C)C[C@H]1N[C@@H](C(=O)NC2CCN(CCC(F)(F)F)CC2)[C@H](c2cccc(Cl)c2F)[C@@]12C(=O)Nc1cc(Cl)ccc12 [MI-519-57-1]						IC50 [1, 5]: < 1 µM; IC50 [2, 6]: 9.5 µM; IC50 [2, 7]: < 3 µM; IC50 [3, 8]: < 3 µM; IC50 [3, 9]: 8.8 µM; IC50 [3, 10]: < 3 µM
CN1CC[C@@H](NC(=O)[C@@H]2N[C@H](CC(C)(C)C)[C@]3(C(=O)Nc4cc(Cl)ccc43)[C@H]2c2cccc(Cl)c2F)[C@@H](F)C1 [MI-519-58]						IC50 [1, 5]: < 1 µM; IC50 [2, 6]: > 10 µM; IC50 [2, 7]: < 3 µM; IC50 [3, 8]: < 3 µM; IC50 [3, 9]: > 10 µM; IC50 [3, 10]: < 3 µM
CC(C)(C)C[C@H]1N[C@@H](C(=O)N[C@@H]2CCN(CCF)C[C@@H]2F)[C@H](c2cccc(Cl)c2F)[C@@]12C(=O)Nc1cc(Cl)ccc12 [MI-519-59]						IC50 [1, 5]: < 1 µM; IC50 [2, 6]: > 10 µM; IC50 [2, 7]: < 1 µM; IC50 [3, 8]: < 3 µM; IC50 [3, 9]: > 10 µM; IC50 [3, 10]: < 3 µM
O=C(NCC[C@H](O)CO)[C@@H]1N[C@H](CCc2ccccc2)[C@]2(C(=O)Nc3cc(Cl)c(F)cc32)[C@H]1c1cccc(Cl)c1 [MI-701]	> 10	33.8 ± 14.6	16.7 ± 13	3 ± 3.5	48.9 ± 22.4	
CCC[C@H]1N[C@@H](C(=O)NCC[C@H](O)CO)[C@H](c2cccc(Cl)c2)[C@@]12C(=O)Nc1cc(Cl)c(F)cc12 [MI-702]	> 1	12.7 ± 2.3	5.8 ± 1.7	1.9 ± 0.3	14.3 ± 2.9	
O=C(NCC[C@H](O)CO)[C@@H]1N[C@H](CCc2cccs2)[C@]2(C(=O)Nc3cc(Cl)c(F)cc32)[C@H]1c1cccc(Cl)c1 [MI-703]	> 1	4.3 ± 1.6	1 ± 0.2	0.2	3.9 ± 0.5	
O=C(NCC[C@H](O)CO)[C@@H]1N[C@H](CCCc2ccccc2)[C@]2(C(=O)Nc3cc(Cl)c(F)cc32)[C@H]1c1cccc(Cl)c1 [MI-704]	> 1	12.1 ± 1	3 ± 0.9	6.8 ± 0.2	18 ± 5.1	
CC(C)CC[C@H]1N[C@@H](C(=O)NCC[C@H](O)CO)[C@H](c2cccc(Cl)c2)[C@@]12C(=O)Nc1cc(Cl)c(F)cc12 [MI-705]	< 10	32 ± 33.3	4.4 ± 4	1.4 ± 0.8	43.9 ± 31.7	
O=C(NCC[C@H](O)CO)[C@@H]1N[C@H](CC2CC2)[C@]2(C(=O)Nc3cc(Cl)c(F)cc32)[C@H]1c1cccc(Cl)c1 [MI-706]	< 10	1.3 ± 0.2	0.6 ± 0.1	0.3	4.6 ± 2.9	
O=C(NCC[C@H](O)CO)[C@@H]1N[C@H](CCc2ccsc2)[C@]2(C(=O)Nc3cc(Cl)c(F)cc32)[C@H]1c1cccc(Cl)c1 [MI-707]	< 5	1.3 ± 0.2	0.6 ± 0.1	0.3	4.6 ± 2.9	
CN1[C@@H](C(=O)NCC[C@H](O)CO)[C@H](c2cccc(Cl)c2)[C@@]2(C(=O)Nc3cc(Cl)c(F)cc32)[C@H]1CC(C)(C)C [MI-708A]	> 3					IC50 [2, 16]: 95.6 ± 18.2 µM; IC50 [2, 17]: 3.8 ± 1 µM; IC50 [3, 18]: 3.5 µM; IC50 [3, 19]: 83.8 ± 11.3 µM
CN1[C@@H](C(=O)NCC[C@H](O)CO)[C@H](c2cccc(Cl)c2)[C@@]2(C(=O)Nc3cc(Cl)c(F)cc32)[C@H]1CC(C)(C)C [MI-708B]	> 3					IC50 [2, 16]: 96.9 ± 17.8 µM; IC50 [2, 17]: 6.6 ± 2.2 µM; IC50 [3, 18]: 6 ± 0.3 µM; IC50 [3, 19]: 84.5 ± 18.3 µM
CN1[C@@H](C(=O)NCC[C@H](O)CO)[C@H](c2cccc(Cl)c2)[C@@]2(C(=O)Nc3cc(Cl)c(F)cc32)[C@H]1CCCc1ccccc1 [MI-709]	> 10	9.4 ± 1.2	9.9 ± 1.7	5.6 ± 1.1	7.2 ± 1.4	
O=C(NCC[C@H](O)CO)[C@@H]1N[C@H](CCCc2cccs2)[C@]2(C(=O)Nc3cc(Cl)c(F)cc32)[C@H]1c1cccc(Cl)c1 [MI-710]	> 1	12.4 ± 1.2	1.3 ± 0.3	1.2 ± 0.2	12.4 ± 1.9	
CN1[C@@H](C(=O)NCC[C@H](O)CO)[C@H](c2cccc(Cl)c2)[C@@]2(C(=O)Nc3cc(Cl)c(F)cc32)[C@H]1CCCc1cccs1 [MI-711]	> 5	6.3 ± 2.9	8.6 ± 1.2	4.8 ± 1.1	9.3 ± 2.5	
O=C(NCC[C@H](O)CO)[C@@H]1N[C@H](CCC2CCCC2)[C@]2(C(=O)Nc3cc(Cl)c(F)cc32)[C@H]1c1cccc(Cl)c1 [MI-712]	< 3	9.1 ± 1	1.8 ± 0.4	1	7.9 ± 0.2	
CN1[C@@H](C(=O)NCC[C@H](O)CO)[C@H](c2cccc(Cl)c2)[C@@]2(C(=O)Nc3cc(Cl)c(F)cc32)[C@H]1CCC1CCCC1 [MI-713]	< 10	4.3 ± 0.7	4.9 ± 1.4	2.7 ± 0.7	6.1 ± 2.1	
CN1[C@@H](C(=O)NCC[C@H](O)CO)[C@H](c2cccc(Cl)c2)[C@@]2(C(=O)Nc3cc(Cl)c(F)cc32)[C@H]1CCc1cccs1 [MI-714]	> 10	7.5 ± 0.3	8.6 ± 0.1	4.3	7.7 ± 1.6	
O=C(NCC[C@H](O)CO)[C@@H]1N[C@H](CCc2ccco2)[C@]2(C(=O)Nc3cc(Cl)c(F)cc32)[C@H]1c1cccc(Cl)c1 [MI-715B]	< 5	> 10	2.7 ± 1	3 ± 0.7	> 10	
O=C(NCC[C@H](O)CO)[C@@H]1N[C@H](CCc2ccco2)[C@]2(C(=O)Nc3cc(Cl)c(F)cc32)[C@H]1c1cccc(Cl)c1 [MI-715C]	< 5					IC50 [2, 16]: > 10 µM; IC50 [2, 17]: 2.9 ± 0.6 µM; IC50 [3, 18]: 2.2 ± 1.2 µM; IC50 [3, 19]: > 10 µM
O=C(NCC[C@H](O)CO)[C@@H]1N[C@H](CC2CCCCC2)[C@]2(C(=O)Nc3cc(Cl)c(F)cc32)[C@H]1c1cccc(Cl)c1 [MI-716A]	< 3	> 10	1 ± 0.5	1.1 ± 0.5	11.5 ± 0.5	
